Source: paper PMC9436819 (JACC: Basic to Translational Science, 2022)
“Also recorded” adds a separate entry of the source.

Tests used:
Type in all cases: in vivo, human
healthy adults [1] = assay: Safety echocardiograms assessed by study cardiologist (AEs of decreased LVEF); conditions: for LVEF deemed AE (decreased ejection fraction <45%): study cardiologist
Source text: Recommendations regarding dose escalation in the SAD cohorts—and in the MAD cohorts described in the next section—were made by the treating investigator (who was blinded to treatment group) and endorsed or not by the Dose Level Review Committee (DLRC), the members of which were unblinded. […] Criteria for escalation included that no more than 2 participants in a dose group developed an LVEF of <50% and that no individual developed an LVEF of <45%; escalation criteria are given in full in the Supplemental Appendix. For safety monitoring, participants in all cohorts had periodic echocardiograms, which were assessed by a cardiologist. In the SAD and MAD cohorts, echocardiograms were also reviewed by an echocardiography core laboratory for PD assessments, as described in the section on echocardiographic methods. In addition, participants in all cohorts were monitored with continuous 12-lead ECG recording using Holter monitors. For safety monitoring, a single 12-lead ECG was extracted at screening, predose, and periodically throughout follow-up and interpreted by the investigator. In the SAD, MAD, and CYP2D6-PM cohorts, cardiodynamic ECGs (triplicate 10-second, 12-lead ECG recordings) were obtained before the corresponding PK blood sample (see the Supplemental Appendix for full details on blood sampling), and ECG intervals were quantitated by qualified readers.

[2] = Plasma pharmacokinetics in the CYP2D6 poor metabolizer cohort
Procedure: CYP2D6 genotypes were determined at screening for all study participants; those identified as CYP2D6-PMs were excluded from the SAD and MAD cohorts but were invited to participate in the CYP2D6-PM cohort. The first individual in the CYP2D6-PM cohort was dosed after the SAD 25-mg cohort (Figure 1). […] Nine participants were randomized (7:2), with a sentinel dosing group consisting of the first 2 participants treated. For all study groups, blood samples for PK assessment were obtained predose, up to 12 times daily on day 1, and then at regular intervals throughout the study (see Supplemental Appendix for details). Standard noncompartmental methods were used to calculate PK parameters using Phoenix WinNonlin, version 7.0; actual sample collection times were used.

healthy adults [3] = assay: Echocardiography (core laboratory) pharmacodynamics, MAD cohorts
Procedure: The MAD cohorts also used a randomized, double-blind, placebo-controlled, sequential design.
For PD assessments of LVEF, echocardiograms for the SAD and MAD cohorts were interpreted by the echocardiography core laboratory and used for all data analysis and dose-level review decisions, and immediate local interpretation of the echocardiograms was performed for safety monitoring. […] Echocardiograms on day 3 (48 hours after dosing) were obtained only if the 24-hour LVEF had not returned to near or above baseline, as determined by the investigator. In the MAD cohorts, echocardiograms were obtained on day -1; predose on day 1; at 1.5 hours postdose on days 2, 4, and 9; and at 1.5, 24, and 72 hours postdose on day 14 (for the 5-mg and 10-mg cohorts) or on day 17 (for the 7.5-mg cohort). Echocardiograms were obtained 3 days after the last dose (on day 17 or 20) only if the participant’s prior LVEF was not near or above baseline, as determined by the investigator.
Using echocardiography instrumentation certified for clinical use, echocardiographic images were obtained from standard views based on American Society of Echocardiography recommendations for chamber quantification.[19] To obtain the LVEF, the endocardial borders of 3 different cardiac cycles were traced at both end diastole and end systole from the apical 4- and 2-chamber views and LV end-diastolic volume (LVEDV) and LV end-systolic volume (LVESV), calculated using the Simpson’s method of discs algorithm. Ejection fraction was calculated in the standard manner: LVEF = (LVEDV − LVESV)/LVEDV. The intraobserver variability (coefficient of variation) for LVEF was 8%.
All participants who received ≥1 dose of the study drug and had ≥1 predose and ≥1 postdose echocardiographic measurements were included in the PD analysis set. […] Descriptive statistics of the echocardiographic parameters were generated using SAS, version 9.3 or higher. Dose-response analysis was performed using analysis of covariance to identify the least-squares mean difference (aficamten minus placebo), as described in the Supplemental Appendix. Analyses of concentration “bin” and exposure-response were also performed using analysis of covariance, as described in the Supplemental Appendix. SAS PROC MIXED was used for all comparative analyses.
Statistical A nalysis of P harmacodynamic (PD) P aram eters
To analyze the impact of drug dose on echocardiographic parameters in the SAD and MAD
cohorts, an inferential analysis was conducted on t he PD analysis set using linear mixed models
for rep eated -measur es an alysis of covarian ce ( AN COVA). The A NCOVA used baseline valu e as
a covariate, included treatment, time-point, and time-point-by- treatment interaction as fixed
effects, and ch ange f rom baseline as the d ependent variable. Th e unstructur ed varian ce-
covarian ce structu re w as used, and the model acco unted for the time- point r epeated m easur es.
The ANCOVA analysis was conducted separately for each study part and f or each PD p aram eter .
The least-squares means, the difference in least squares means (active minus placebo), and the
associated 2-sided 95% CIs were presented for each comparison.
Concentration bin analysis
An additional inferential analysis was performed i n the SAD and MAD cohorts , to evaluate the
analysis set. A concentrat ion bin ANCOVA was conducted using linear mi xed models for
repeat ed-measures an aly ses with concentr ation bin group as a fix ed ef fect, baseline PD
parameters as a covari ate, change f rom baseline as the dependent v ariable, and a random
intercept to adjust for the repeat ed measures. The unstructured variance-co variance structur e was
used.Plasma concentr ations of aficamten wer e paired with coincident PD parameters. The
ANCOVA compared the change in PD parameters between each bin versus the pooled placebo
group. The least-squ ares means, the differen ce in l east squares m eans (bin group minus placebo), […]

[4] = SAD 40 mg, one participant, 6 h after drug dose
[5] = SAD 50 mg, one participant, 4 h after drug dose
[6] = SAD 75 mg, single participant, 4 h after drug dose
[7] = CYP2D6 poor metabolizers, single 10 mg, arithmetic mean ± SD, n = 7
[8] = human, plasma, oral, CYP2D6 poor metabolizers, single 10 mg, geometric mean (geometric CV%), n = 7

CL/F [2, 7]: 3.6 ± 1.4 L/h
t½ [2, 7]: 110 h
half-life ([2]; human, plasma, oral, 10 mg, CYP2D6 poor metabolizers, single 10 mg, arithmetic mean ± SD, n = 7, read-out: t½ (converted)): 110 ± 47.3 h
Vd/F ([2]; human, plasma, oral, CYP2D6 poor metabolizers, single 10 mg, arithmetic mean ± SD, n = 7, read-out: Vz/F): 506 ± 84.4 L
AUC(0-inf) [2, 8]: 2970 ng·h/mL
Cmax [2, 8]: 57.3 ng/mL
AUC ([2]; human, plasma, oral, CYP2D6 poor metabolizers, single 10 mg, geometric mean (geometric CV%), n = 7, read-out: AUC24): 495 ng·h/mL
Tmax ([2]; human, plasma, oral, CYP2D6 poor metabolizers, single 10 mg, median (range), n = 7): 1 h
Effect of CYP2D6 poor metabolizer phenotype on the PK ([2]; single 10 mg): not affected; also recorded: no effect
Plasma mean concentrations in CYP2D6 poor metabolizers versus extensive metabolizers ([2]; single 10-mg dose): Modestly lower
Participants who met the stopping criteria based on echocardiography results (healthy adults [3]; MAD 10 mg once daily for 14 days): 2 participants
Reduction in LVEF to <50% (healthy adults [3]; any of the MAD cohorts, per core laboratory assessment): not observed
SMILES: CCc1nc(-c2ccc3c(c2)CC[C@H]3NC(=O)c2cnn(C)c2)no1 [Aficamten]
Participants with echocardiogram-related AEs of decreased LVEF of <45% (healthy adults [1]; 1 each in SAD 40-mg, 50-mg, and 75-mg cohorts): 3 participants
AEs of decreased ejection fraction of <45% (healthy adults [1]; MAD, CYP2D6-PM, and food-effect cohorts): no echocardiographic AEs
Grade of AE of decreased ejection fraction (healthy adults [1]; SAD 40 mg, one participant): 1 (mild)
Onset of AE of decreased ejection fraction (time after drug dose) (healthy adults [1]; SAD 40 mg, one participant): 1.4 h
LVEF recorded at resolution of AE (healthy adults [1]; [4]): 58.4%
Time from onset to resolution of AE of decreased ejection fraction (healthy adults [1]; [4]): 4.6 h
LVEF deemed AE (decreased ejection fraction <45%) (healthy adults [1]; SAD 40 mg, one participant): 42.2%
Decrease in LVEF of 1 participant after cohort expansion (healthy adults [1]; SAD 50 mg): > 15%
LVEF of 1 participant after cohort expansion (healthy adults [1]; SAD 50 mg): < 45%
Postdose LVEF of 1 participant (<50%) (healthy adults [1]; SAD 50 mg, initial cohort): 46.2%
Grade of AE of decreased ejection fraction (healthy adults [1]; SAD 50 mg, one participant): 1 (mild)
Onset of AE of decreased ejection fraction (time after drug dose) (healthy adults [1]; SAD 50 mg, one participant): 1.5 h
LVEF recorded at resolution of AE (healthy adults [1]; [5]): 50.2%
Time from onset to resolution of AE of decreased ejection fraction (healthy adults [1]; [5]): 2.5 h
LVEF deemed AE (decreased ejection fraction <45%) (healthy adults [1]; SAD 50 mg, one participant): 42.1%
Postdose LVEF of the sentinel participant (healthy adults [1]; SAD 75 mg): < 45%
Reduction in LVEF of the single participant (healthy adults [1]; SAD 75 mg, […] postdose): 31.5%
Grade of AE of decreased ejection fraction (healthy adults [1]; SAD 75 mg, single participant): 1 (mild)
Onset of AE of decreased ejection fraction (time after drug dose) (healthy adults [1]; SAD 75 mg, single participant): 1.5 h
LVEF recorded at resolution of AE (healthy adults [1]; [6]): 51.9%
Time from onset to resolution of AE of decreased ejection fraction (healthy adults [1]; [6]): 2.5 h
LVEF deemed AE (decreased ejection fraction <45%) (healthy adults [1]; SAD 75 mg, single participant, […] postdose): 34.6%
Time to resolution of AEs of decreased LVEF (next echocardiogram assessment) (healthy adults [1]; SAD 40, 50, 75 mg): 2.5 to 4.6 h
Participants with absolute reduction in LVEF of ≥5% from baseline (healthy adults [3]; MAD 7.5 mg once daily, 1 of 6): 17%
Participants with absolute reduction in LVEF of ≥10% from baseline (healthy adults [3]; MAD 10 mg once daily): 33%
Participants with reduction in LVEF ≥10% (healthy adults [3]; MAD 10 mg once daily): 2 participants
Placebo-corrected reduction in LVEF (least-squares mean difference) (healthy adults [3]; MAD 10 mg once daily for 14 days, […] postdose on day 14, P = 0.21): 3.2%
Participants with absolute reduction in LVEF of ≥5% from baseline (healthy adults [3]; MAD 10 mg once daily, 2 of 6): 33%
Largest mean reduction in LVEF from baseline (healthy adults [3]; MAD 10 mg, […] postdose on day 14): 5.0%
Suppression of LVEF in most participants (healthy adults [3]; MAD cohorts, plasma concentrations of ≤180 ng/mL): minimal suppression of LVEF
Relationship of LVEF to plasma concentration (healthy adults [3]; MAD cohorts, bin concentration analysis or linear regression analysis): did not reach statistical significance
